Reference: ChEMBL document CHEMBL1201862, “PubChem BioAssay data set” (2004)
Active and inactive are the calls of the source.

Experiments:
[1] = target: T1, Small ubiquitin-related modifier 2 (Homo sapiens, UniProt P61956); experiment: SUMO2 binding disruption by SUMO1 hits – biochemical, FRET, human SUMO2, uHTS hits, selectivity assay for SUMO1 interaction inhibitor project, dose response (AID 624384); assay type: functional; conditions: read-out: IC50_Mean
Fatty acid synthase [2] = target: T2, Fatty acid synthase (Homo sapiens, UniProt P49327); experiment: inhibition of human FAS-TE enzyme activity – biochemical, kinetic fluorescence intensity, dose response (AID 624326); assay type: functional;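 also: rate of fluorescence rise from hydrolysis of a fluorogenic O-methyl fluorescein ester substrate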
[3] = target: T3, Small ubiquitin-related modifier 1 (Homo sapiens, UniProt P63165); experiment: SUMO1 protein-protein binding blockers, potency – biochemical, FRET, dose response (AID 624383); assay type: functional; conditions: read-out: IC50_Mean
[4] = target: T4, Corticotropin-releasing factor receptor 2/Corticotropin-releasing factor-binding protein (Homo sapiens, UniProt P24387+Q13324); experiment: activators of CRF receptor 2 with binding protein – uHTS hits, confirmation (AID 602473); assay type: functional; conditions: read-out: EC50_Mean
T4 sequence (Q13324 whole entry): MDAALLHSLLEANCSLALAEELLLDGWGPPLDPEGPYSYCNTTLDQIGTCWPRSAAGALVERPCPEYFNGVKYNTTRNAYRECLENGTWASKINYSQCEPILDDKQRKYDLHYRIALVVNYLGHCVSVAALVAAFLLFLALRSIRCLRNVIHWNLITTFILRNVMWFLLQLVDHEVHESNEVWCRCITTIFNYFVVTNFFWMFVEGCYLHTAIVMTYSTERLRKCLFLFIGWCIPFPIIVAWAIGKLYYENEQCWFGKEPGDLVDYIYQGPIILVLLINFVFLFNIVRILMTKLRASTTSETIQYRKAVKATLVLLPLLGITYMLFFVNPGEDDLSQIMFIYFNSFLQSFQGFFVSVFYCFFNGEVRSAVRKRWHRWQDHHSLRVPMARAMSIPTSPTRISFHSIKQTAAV
T4 sequence (P24387 whole entry): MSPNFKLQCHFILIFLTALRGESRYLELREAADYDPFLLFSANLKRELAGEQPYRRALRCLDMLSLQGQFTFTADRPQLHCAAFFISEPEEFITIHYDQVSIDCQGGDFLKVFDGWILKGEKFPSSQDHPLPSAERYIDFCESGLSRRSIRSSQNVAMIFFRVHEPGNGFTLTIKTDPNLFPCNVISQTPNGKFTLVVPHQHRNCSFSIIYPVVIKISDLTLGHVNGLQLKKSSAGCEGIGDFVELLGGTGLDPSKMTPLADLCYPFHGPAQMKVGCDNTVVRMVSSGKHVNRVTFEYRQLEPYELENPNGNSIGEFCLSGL

[5] = target: T1, Small ubiquitin-related modifier 2; experiment: disruption of SUMO2 interaction with SIM peptide – biochemical, fluorescence polarization, uHTS hits, selectivity assay for SUMO1 interaction inhibitor project, dose response (AID 624385); assay type: functional; conditions: read-out: IC50_Mean
[6] = target: T3, Small ubiquitin-related modifier 1; experiment: SUMO1 protein interaction blockers, potency – biochemical, fluorescence polarization, uHTS hits, dose response (AID 624382); assay type: functional; conditions: read-out: IC50_Mean
[7] = blockers of CRF-binding protein–CRF-R2 complex – cell-based, uHTS hits, 384-well, dose response (AID 651639); assay type: functional, Homo sapiens; conditions: read-out: IC50_Mean
Fatty acid synthase [8] = target: T2, Fatty acid synthase; experiment: inhibition of human FAS-TE enzyme activity – biochemical, endpoint fluorescence intensity, uHTS hits, dose response (AID 624327); assay type: functional;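 also: fluorescence from hydrolysis of an O-methyl fluorescein acyl ester substrate by the enzyme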
[9] = target: T4, Corticotropin-releasing factor receptor 2/Corticotropin-releasing factor-binding protein; experiment: Dose Response confirmation of uHTS hits for small molecule antagonists of the CRF-binding protein and CRF-R2 receptor complex.; assay type: functional; conditions: read-out: IC50_Mean
[10] = target: DNA (cytosine-5)-methyltransferase 1 (Homo sapiens, UniProt P26358); experiment: inhibition of DNA methylation by DNMT1 – biochemical, fluorescent molecular beacon, confirmation (AID 602386); assay type: functional
[11] = target: NAD-dependent protein deacylase sirtuin-5, mitochondrial (Homo sapiens, UniProt Q9NXA8); experiment: sirtuin-5 deacylation blockers, concentration series – biochemical, fluorescence imaging, cherry-pick, set 5, dose response (AID 720591);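 also: desuccinylation of succinyl peptide AMC substrate read as fluorescence after trypsin release; potency of inhibitors that lower fluorescence and may act on trypsin instead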
[12] = target: T5, Methionyl-tRNA synthetase, putative (Trypanosoma brucei brucei, UniProt Q38C91); assay type: functional, Trypanosoma brucei brucei strain 927/4 GUTat10.1
T5 sequence (Q38C91 whole entry): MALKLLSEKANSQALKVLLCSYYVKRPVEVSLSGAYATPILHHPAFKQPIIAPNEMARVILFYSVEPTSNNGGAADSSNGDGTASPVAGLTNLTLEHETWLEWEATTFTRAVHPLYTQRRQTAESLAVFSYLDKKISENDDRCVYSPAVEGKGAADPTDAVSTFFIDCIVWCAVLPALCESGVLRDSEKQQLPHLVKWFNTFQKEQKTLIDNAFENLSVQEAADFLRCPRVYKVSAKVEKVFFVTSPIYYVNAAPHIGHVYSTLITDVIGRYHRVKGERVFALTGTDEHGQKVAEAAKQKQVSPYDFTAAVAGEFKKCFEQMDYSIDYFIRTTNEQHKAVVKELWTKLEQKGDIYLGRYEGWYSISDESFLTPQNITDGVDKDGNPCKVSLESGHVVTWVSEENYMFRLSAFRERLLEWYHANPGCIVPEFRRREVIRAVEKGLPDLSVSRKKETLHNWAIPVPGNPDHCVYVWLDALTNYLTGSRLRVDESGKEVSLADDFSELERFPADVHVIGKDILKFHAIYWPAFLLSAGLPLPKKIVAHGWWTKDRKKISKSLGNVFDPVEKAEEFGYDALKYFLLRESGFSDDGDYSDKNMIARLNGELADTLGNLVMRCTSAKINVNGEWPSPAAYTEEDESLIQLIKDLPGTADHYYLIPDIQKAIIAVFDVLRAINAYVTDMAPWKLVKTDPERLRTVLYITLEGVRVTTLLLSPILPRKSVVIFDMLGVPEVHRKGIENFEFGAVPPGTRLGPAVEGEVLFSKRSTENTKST

[13] = target: T5, Methionyl-tRNA synthetase, putative; assay type: functional, Trypanosoma brucei brucei strain 927/4 GUTat10.1; remark: listed apart in the source
[14] = Late stage counterscreen for inhibitors of Trypanosoma brucei methionyl tRNA synthetase (MetRS): Luminescence-based cell-based high throughput dose response assay to identify compounds that are cytotoxic to Jurkat human T lymphocyte cells.; assay type: functional
[15] = Counterscreen for inhibitors of Trypanosoma brucei methionyl tRNA synthetase (MetRS): Luminescence-based cell-based high throughput dose response assay to identify compounds that are cytotoxic to Jurkat human T lymphocyte cells.; assay type: functional
NS3 = NS3 (Hepatitis C virus, UniProt A3EZJ3); experiment: NS3h DNA-binding inhibition IC50 – biochemical, fluorescence polarization, ChemBridge library, dose response (AID 743264)
[16] = viability loss in CEM21 cells – cell-based, plate reader, dry powder, cytotoxicity control, dose response (AID 687026); assay type: functional
[17] = viability loss in HEK293 cells – cell-based, plate reader, cherry-picked samples, cytotoxicity control, dose response (AID 743446); assay type: functional
[18] = A549 cell cytotoxicity, dose response, cytotoxicity control, plate reader, cherry-pick, antagonist series (AID 743412); assay type: functional, cell-based
[19] = P. falciparum Dd2 growth inhibitors, dose response, SYBR Green, cherry-picked samples (AID 1159567); assay type: functional, cell-based
[20] = blockade of melanocortin 4 receptor signaling – cell-based, plate reader, cherry pick, counter-screen for LGR2 antagonist project, dose response (AID 743444); assay type: functional;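 also: transfected HEK 293 cells stimulated with alpha-MSH peptide; potency of inhibitors of the alpha-MSH evoked signal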
[21] = OVCAR8 cell viability loss – plate reader, dry powder samples, PAX8 project, dose response (AID 743197); assay type: functional, cell-based; conditions: OVCAR-8
[22] = toxicity toward immortalized ovarian surface epithelium – cell-based, plate reader, dry powder samples, cytotoxicity control for PAX8 inhibitor project, dose response (AID 743045); assay type: functional
[23] = IGROV1 cell killing – plate reader, dry powder samples, PAX8 inhibitor project, dose response (AID 743043); assay type: functional, cell-based; conditions: IGROV-1
[24] = Dd2 malaria parasite growth inhibition potency – SYBR Green, dry powder samples, dose response (AID 1159566); assay type: functional, cell-based;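 also: potency for growth inhibition with lower SYBR green DNA signal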
[25] = OVCAR-3 cell viability loss – plate reader, dry powder samples, PAX8 inhibitor project, dose response (AID 743044); assay type: functional, cell-based
[26] = toxicity toward HepG2 liver cells – cell-based, plate reader, cherry-pick, antagonist series, cytotoxicity control, dose response (AID 743416); assay type: functional
[27] = blockers of bursicon-stimulated LGR2 cAMP reporter – cell-based, HEK293, CRE-luciferase reporter, cherry pick, set 2, dose response (AID 743343); assay type: functional;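 also: transfected cells were stimulated with diluted bursicon conditioned medium after compound addition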
[28] = growth inhibition of yeast DHODH-expressing 3D7 parasites – SYBR Green, dry powder samples, dose response (AID 1159570); assay type: functional, cell-based;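 also: parasite growth measured after 72 hours of compound exposure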
[29] = toxicity to human HepG2 hepatoma cells – cell-based, plate reader, dry powder samples, cytotoxicity control, dose response (AID 1159569); assay type: functional;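 also: inhibitor potency with signal falling toward the positive control level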
Paired box protein Pax-8 = Paired box protein Pax-8 (Homo sapiens, UniProt Q06710); experiment: PAX8 transcriptional activity inhibition in RMG-I – RMG-I cells, luciferase, cherry-pick, dose response (AID 687027); assay type: functional, cell-based;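 also: luciferase reporter driven by Pax8 target thyroperoxidase promoter measured by SteadyGlo luminescence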
[30] = growth inhibition of PfATP4-mutant resistant parasites – NITD609-resistant line, SYBR Green, dry powder, dose response (AID 1159571); assay type: functional, cell-based;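 also: parasites synchronized at ring stage by sorbitol before testing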
[31] = A2780 cell killing – plate reader, dry powder samples, cytotoxicity control, dose response (AID 743046); assay type: functional, cell-based
[32] = viability loss in A549 lung cells – cell-based, 24 h, CellTiter-Glo luminescence, cherry-picks, cytotoxicity control, dose response (AID 1053115); assay type: functional; conditions: A549, 24 h
[33] = viability loss in MITF-independent A375 cells – cell-based, CellTiter-Glo luminescence, dry powder, set 2, counter-screen for MITF inhibitor project, dose response (AID 624489); assay type: functional; conditions: A-375;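 also: actives are compounds lowering A375 viability meaning general cytotoxicity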
[34] = cytotoxicity in MITF-independent A375 cells – cell-based, CellTiter-Glo luminescence, dry powder, set 4, counter-screen for MITF inhibitor project, dose response (AID 624364); assay type: functional; conditions: A-375;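 also: A375 melanoma cells are MITF independent so this is a counter screen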

Sequence of Paired box protein Pax-8 (Q06710 whole entry): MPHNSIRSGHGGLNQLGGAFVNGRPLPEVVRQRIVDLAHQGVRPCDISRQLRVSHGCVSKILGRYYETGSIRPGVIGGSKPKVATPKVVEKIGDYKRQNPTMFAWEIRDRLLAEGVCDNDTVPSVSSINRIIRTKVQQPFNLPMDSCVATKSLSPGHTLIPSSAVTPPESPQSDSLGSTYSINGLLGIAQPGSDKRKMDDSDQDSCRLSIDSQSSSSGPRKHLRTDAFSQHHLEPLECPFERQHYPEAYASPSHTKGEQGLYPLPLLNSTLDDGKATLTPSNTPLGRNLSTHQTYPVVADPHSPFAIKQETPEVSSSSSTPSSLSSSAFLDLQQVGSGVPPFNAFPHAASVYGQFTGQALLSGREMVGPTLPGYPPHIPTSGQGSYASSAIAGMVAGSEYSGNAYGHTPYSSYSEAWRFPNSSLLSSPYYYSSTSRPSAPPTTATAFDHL
T2 sequence (P49327 whole entry): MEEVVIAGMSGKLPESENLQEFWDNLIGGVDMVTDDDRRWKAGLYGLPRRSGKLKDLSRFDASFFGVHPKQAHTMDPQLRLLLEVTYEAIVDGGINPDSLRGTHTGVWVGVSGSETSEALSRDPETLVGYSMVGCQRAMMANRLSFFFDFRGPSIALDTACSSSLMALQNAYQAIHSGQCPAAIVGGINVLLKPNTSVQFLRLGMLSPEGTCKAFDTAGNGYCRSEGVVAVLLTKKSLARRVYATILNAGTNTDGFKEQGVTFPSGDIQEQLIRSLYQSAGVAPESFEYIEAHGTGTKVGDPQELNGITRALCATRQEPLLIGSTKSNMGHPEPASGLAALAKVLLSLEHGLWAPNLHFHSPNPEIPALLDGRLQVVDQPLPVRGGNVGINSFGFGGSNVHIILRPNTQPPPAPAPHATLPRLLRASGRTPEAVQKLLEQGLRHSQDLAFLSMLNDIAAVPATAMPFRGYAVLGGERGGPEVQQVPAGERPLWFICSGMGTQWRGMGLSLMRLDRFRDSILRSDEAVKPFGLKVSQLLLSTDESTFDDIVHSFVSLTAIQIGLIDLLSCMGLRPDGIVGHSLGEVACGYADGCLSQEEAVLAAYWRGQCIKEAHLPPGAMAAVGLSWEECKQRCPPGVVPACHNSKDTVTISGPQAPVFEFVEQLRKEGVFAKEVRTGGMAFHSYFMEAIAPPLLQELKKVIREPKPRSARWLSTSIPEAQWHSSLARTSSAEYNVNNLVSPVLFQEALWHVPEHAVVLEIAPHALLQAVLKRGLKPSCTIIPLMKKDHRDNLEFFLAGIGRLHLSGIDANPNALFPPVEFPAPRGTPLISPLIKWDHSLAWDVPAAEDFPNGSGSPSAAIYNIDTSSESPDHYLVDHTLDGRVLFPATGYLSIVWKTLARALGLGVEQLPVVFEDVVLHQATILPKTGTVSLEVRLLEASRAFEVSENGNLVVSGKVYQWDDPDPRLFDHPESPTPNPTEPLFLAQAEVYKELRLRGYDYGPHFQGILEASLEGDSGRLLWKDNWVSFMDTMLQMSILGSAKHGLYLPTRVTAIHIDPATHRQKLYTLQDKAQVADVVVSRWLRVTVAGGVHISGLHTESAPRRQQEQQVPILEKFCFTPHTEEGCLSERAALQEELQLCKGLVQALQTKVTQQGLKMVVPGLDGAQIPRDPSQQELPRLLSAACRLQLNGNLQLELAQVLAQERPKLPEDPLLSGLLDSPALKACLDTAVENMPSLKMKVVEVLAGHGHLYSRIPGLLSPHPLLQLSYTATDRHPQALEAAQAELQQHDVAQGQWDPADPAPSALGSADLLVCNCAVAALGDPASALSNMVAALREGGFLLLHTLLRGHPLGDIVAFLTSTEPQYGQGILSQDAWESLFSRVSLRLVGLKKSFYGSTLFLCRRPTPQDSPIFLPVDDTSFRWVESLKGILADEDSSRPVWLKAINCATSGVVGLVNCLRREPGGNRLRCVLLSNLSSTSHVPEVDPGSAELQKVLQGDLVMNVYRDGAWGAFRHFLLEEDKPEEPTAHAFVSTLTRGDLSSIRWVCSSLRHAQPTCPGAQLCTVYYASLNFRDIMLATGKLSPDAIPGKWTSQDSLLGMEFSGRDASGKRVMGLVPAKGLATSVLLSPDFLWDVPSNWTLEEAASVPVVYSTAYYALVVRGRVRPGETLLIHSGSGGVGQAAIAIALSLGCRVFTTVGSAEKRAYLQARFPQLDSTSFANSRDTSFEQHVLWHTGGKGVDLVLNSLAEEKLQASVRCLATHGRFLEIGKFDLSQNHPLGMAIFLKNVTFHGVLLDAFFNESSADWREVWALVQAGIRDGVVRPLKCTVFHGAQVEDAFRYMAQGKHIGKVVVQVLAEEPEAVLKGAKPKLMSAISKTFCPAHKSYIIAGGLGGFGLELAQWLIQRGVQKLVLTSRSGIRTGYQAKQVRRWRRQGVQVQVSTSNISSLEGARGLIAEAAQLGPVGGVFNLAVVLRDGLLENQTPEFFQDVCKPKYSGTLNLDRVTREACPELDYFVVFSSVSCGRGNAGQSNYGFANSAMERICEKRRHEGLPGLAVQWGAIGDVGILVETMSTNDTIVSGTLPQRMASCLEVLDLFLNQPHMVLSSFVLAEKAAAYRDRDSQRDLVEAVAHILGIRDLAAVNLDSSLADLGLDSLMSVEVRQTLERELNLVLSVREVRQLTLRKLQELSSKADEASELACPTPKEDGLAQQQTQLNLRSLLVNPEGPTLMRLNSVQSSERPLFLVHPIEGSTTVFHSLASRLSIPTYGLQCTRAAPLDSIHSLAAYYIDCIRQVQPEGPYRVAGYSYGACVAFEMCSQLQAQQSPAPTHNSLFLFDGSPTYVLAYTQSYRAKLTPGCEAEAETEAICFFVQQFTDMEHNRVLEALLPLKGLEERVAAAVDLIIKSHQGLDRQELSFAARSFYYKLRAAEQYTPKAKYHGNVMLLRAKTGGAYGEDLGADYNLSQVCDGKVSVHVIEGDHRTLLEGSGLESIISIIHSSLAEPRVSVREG
T3 sequence (P63165 whole entry): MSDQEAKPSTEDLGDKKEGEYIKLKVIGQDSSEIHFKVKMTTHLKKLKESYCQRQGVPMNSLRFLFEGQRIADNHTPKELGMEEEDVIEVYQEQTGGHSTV
T1 sequence (P61956 whole entry): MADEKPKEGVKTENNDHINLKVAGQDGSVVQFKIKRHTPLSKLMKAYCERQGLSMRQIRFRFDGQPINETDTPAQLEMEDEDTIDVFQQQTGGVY
Sequence of NAD-dependent protein deacylase sirtuin-5, mitochondrial (Q9NXA8 whole entry): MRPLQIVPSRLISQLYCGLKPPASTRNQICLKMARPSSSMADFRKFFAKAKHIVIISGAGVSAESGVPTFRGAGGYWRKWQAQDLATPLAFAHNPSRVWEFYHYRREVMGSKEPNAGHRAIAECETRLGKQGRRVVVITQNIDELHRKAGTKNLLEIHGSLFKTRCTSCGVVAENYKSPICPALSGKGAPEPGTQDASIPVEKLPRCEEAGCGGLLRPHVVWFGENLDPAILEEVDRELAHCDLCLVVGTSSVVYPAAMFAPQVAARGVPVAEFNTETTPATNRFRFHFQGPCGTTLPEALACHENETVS
Sequence of NS3 (A3EZJ3 whole entry): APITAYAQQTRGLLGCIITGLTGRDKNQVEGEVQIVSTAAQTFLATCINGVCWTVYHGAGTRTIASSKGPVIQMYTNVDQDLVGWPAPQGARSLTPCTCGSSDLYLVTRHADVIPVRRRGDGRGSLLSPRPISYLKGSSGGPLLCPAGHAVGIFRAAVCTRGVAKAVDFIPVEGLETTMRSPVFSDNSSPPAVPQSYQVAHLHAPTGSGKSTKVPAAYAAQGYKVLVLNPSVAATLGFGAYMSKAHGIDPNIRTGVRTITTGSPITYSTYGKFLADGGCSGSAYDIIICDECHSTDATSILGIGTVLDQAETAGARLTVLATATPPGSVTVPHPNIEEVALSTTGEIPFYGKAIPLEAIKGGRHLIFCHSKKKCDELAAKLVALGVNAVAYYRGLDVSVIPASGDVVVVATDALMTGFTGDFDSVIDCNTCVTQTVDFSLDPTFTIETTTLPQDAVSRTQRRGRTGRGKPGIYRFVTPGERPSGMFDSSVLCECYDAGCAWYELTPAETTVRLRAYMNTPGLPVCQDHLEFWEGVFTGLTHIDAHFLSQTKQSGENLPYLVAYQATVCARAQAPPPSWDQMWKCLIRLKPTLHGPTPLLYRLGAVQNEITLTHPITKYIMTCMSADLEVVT

## COc1cc(CCc2ccccc2)c(C(=O)O)c(O)c1C/C=C(/C)CCC=C(C)C
[1]
  IC50: 15.5 µM (active)
Fatty acid synthase [2]
  IC50: 8.42 µM (active)
[3]
  IC50: 14.4 µM (active)
[4]
  EC50: > 53 µM (inactive)
[5]
  IC50: 28.8 µM (inactive)
[6]
  IC50: 17.8 µM (active)
[7]
  IC50: 3.79 µM (active)
Fatty acid synthase [8]
  IC50: 8.25 µM (active)
[9]
  IC50: < 0.368 µM (active)
[10]
  IC50: 3.5 µM (active)
[11]
  AC50: 15.7 µM (active)

## Cc1ccc(NC(=O)CN(C)C(=O)CCSc2ccc(F)cc2)cc1
[12]
  IC50: 3.09 µM (active)
[13]
  IC50: 4.57 µM (active)
[14]
  IC50: > 83.3 µM (inactive)
[15]
  IC50: 83.3 µM (inactive)

## Cc1ccc(C)n1-c1ccc(C(=O)O)c(O)c1
NS3
  IC50: 1.85 µM (inactive)
[16]
  AC50: > 70 µM (inactive)

## O=C(C1CC1)N1C[C@@H]2N[C@H](C1)[C@@H]2c1ccc(-c2cccc(F)c2)cc1
[17]
  AC50: 28.1 µM (active)
[18]
  AC50: 3.9 µM (active)
[19]
  AC50: 2.2 µM (active)
[20]
  AC50: 6.56 µM (active)
[21]
  AC50: 21.2 µM (active)
[22]
  AC50: 21.1 µM (active)
[23]
  AC50: 26.7 µM (active)
[24]
  AC50: 0.778 µM (active)
[25]
  AC50: 27 µM (active)
[26]
  AC50: 19.6 µM (active)
[27]
  AC50: 12.5 µM (active)
[28]
  AC50: 0.9 µM (active)
[29]
  AC50: 23.2 µM (active)
Paired box protein Pax-8
  AC50: 6.38 µM (active)
[30]
  AC50: 1.04 µM (active)

## COc1ccc(S(=O)(=O)Nc2ccc3c(c2)C(=O)N([C@H](C)CO)C[C@@H](C)[C@@H](CN(C)Cc2ccc(C(F)(F)F)cc2)OCCCC[C@@H](C)O3)cc1
[21]
  AC50: 30.6 µM (active)
[23]
  AC50: 65.2 µM (active)
[31]
  AC50: 51.2 µM (active)
[25]
  AC50: 27.9 µM (active)
Paired box protein Pax-8
  AC50: 7.09 µM (active)

## CCOC(=O)[C@@H]1[C@@H]2C=C[C@]3(O2)[C@H](C(=O)NCc2ccccc2)N(CCCCCCO)C(=O)[C@@H]13
[32]
  AC50: 48.1 µM (active)

## C=CCNC1=C(N2CCOCC2)C(=O)c2ccccc2C1=O
[33]
  AC50: 9.04 µM (active)
[34]
  AC50: 34.1 µM (active)
